Laboratory results as given in patent US20060281700A1, “SYNERGISTIC MODULATION OF FLT3 KINASE USING AMINOPYRIMIDINES KINASE MODULATORS” (priority 2005, published 2006).

Columns and labels:
[1] = target: T1, isolated kinase domain of the human FLT3 receptor (a.a. 571-993) (Homo sapiens, UniProt P36888); experiment: FLT3 Fluorescence Polarization Kinase Assay; format: biochemical; conditions: 10 nM FLT3 571-993, 150 uM ATP; uncertainty ±10%
T1 construct: isolated kinase domain of the human FLT3 receptor (a.a. 571-993)
T1 sequence (P36888 571-993): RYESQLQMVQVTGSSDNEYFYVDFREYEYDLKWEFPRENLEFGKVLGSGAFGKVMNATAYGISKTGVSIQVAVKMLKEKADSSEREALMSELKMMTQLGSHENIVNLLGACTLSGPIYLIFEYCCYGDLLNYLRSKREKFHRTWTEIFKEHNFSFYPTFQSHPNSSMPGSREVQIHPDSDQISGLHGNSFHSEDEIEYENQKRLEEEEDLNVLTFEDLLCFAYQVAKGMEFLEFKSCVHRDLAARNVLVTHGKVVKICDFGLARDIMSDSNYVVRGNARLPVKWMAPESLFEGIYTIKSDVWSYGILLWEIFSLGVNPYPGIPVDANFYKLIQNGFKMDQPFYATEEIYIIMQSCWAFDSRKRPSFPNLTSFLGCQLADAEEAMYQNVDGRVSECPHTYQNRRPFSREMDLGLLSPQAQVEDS
Protocol: FLT3 Fluorescence Polarization Kinase Assay
To determine the activity of the FLT3 inhibitors of Formula I′ in an in vitro kinase assay, inhibition of the isolated kinase domain of the human FLT3 receptor (a.a. 571-993) was performed using the following fluorescence polarization (FP) protocol. The FLT3 FP assay utilizes the fluorescein-labeled phosphopeptide and the anti-phosphotyrosine antibody included in the Panvera Phospho-Tyrosine Kinase Kit (Green) supplied by Invitrogen. When FLT3 phosphorylates polyGlu4Tyr, the fluorescein-labeled phosphopeptide is displaced from the anti-phosphotyrosine antibody by the phosphorylated poly Glu4Tyr, thus decreasing the FP value. The FLT3 kinase reaction is incubated at room temperature for 30 minutes under the following conditions: 10 nM FLT3 571-993, 20 ug/mL poly Glu4Tyr, 150 uM ATP, 5 mM MgCl2, 1% compound in DMSO. The kinase reaction is stopped with the addition of EDTA. The fluorescein-labeled phosphopeptide and the anti-phosphotyrosine antibody are added and incubated for 30 minutes at room temperature.
All data points are an average of triplicate samples. Inhibition and IC50 data analysis was done with GraphPad Prism using a non-linear regression fit with a multiparamater, sigmoidal dose-response (variable slope) equation.

[2] = test system: MV4-11 cells; experiment: Inhibition of MV4-11 cell proliferation (CellTiterGlo, 72 hours); format: cell-based; conditions: Homo sapiens; 72 hours growth; uncertainty ±20%
Protocol: Inhibition Of MV4-11 and Baf3 Cell Proliferation
To assess the cellular potency of the FLT3 inhibitors of Formula I′, FLT3 specific growth inhibition was measured in the leukemic cell line MV4-11 (ATCC Number: CRL-9591). […] MV4-11 cells cannot grow and survive without active FLT3ITD.
To measure proliferation inhibition by test compounds, the luciferase based CellTiterGlo reagent (Promega), which quantifies total cell number based on total cellular ATP concentration, was used. Cells are plated at 10,000 cells per well in 100 ul of in RPMI media containing penn/strep, 10% FBS and 1 ng/ml GM-CSF or 1 ng/ml IL-3 for MV4-11 and Baf3 cells respectively.
Compound dilutions or 0.1% DMSO (vehicle control) are added to cells and the cells are allowed to grow for 72 hours at standard cell growth conditions (37° C., 5% CO2). For activity measurements in MV4-11 cells grown in 50% plasma, cells were plated at 10,000 cells per well in a 1:1 mixture of growth media and human plasma (final volume of 100 μL). To measure total cell growth an equal volume of CellTiterGlo reagent was added to each well, according to the manufacturer's instructions, and luminescence was quantified. Total cell growth was quantified as the difference in luminescent counts (relative light units, RLU) of cell number at Day 0 compared to total cell number at Day 3 (72 hours of growth and/or compound treatment). One hundred percent inhibition of growth is defined as an RLU equivalent to the Day 0 reading. Zero percent inhibition was defined as the RLU signal for the DMSO vehicle control at Day 3 of growth. All data points are an average of triplicate samples. […] Inhibition and IC50 data analysis was done with GraphPad Prism using a non-linear regression fit with a multiparamater, sigmoidal dose-response (variable slope) equation.
MV4-11 cells express the FLT3 internal tandem duplication mutation, and thus are entirely dependent upon FLT3 activity for growth. […] In contrast, the Baf3 cell proliferation is driven by the cytokine IL-3 and thus are used as a non-specific toxicity control for test compounds.

IC50 [1]	IC50 [2]	Structure (SMILES)
450 nM	764 nM	CO/N=C/c1c(N)ncnc1N1CCC(NC(=O)Nc2ccc(N3CCCCC3)cc2)C1 (stereo not shown) [Number 9, 1-{1-[6-Amino-5-(methoxyimino-methyl)-pyrimidin-4-yl]-pyrrolidin-3-yl}-3-(4-piperidin-1-yl-phenyl)-urea]
34 nM	890 nM	CO/N=C/c1c(N)ncnc1N1CCC(NC(=O)Nc2ccc(Cl)cc2)CC1 [Number 25, 1-{1-[6-Amino-5-(methoxyimino-methyl)-pyrimidin-4-yl]-piperidin-4-yl}-3-(4-chloro-phenyl)-urea]
